# Measured values as given in publication PMC8728736, “A Reactivity-Based ^18F-Labeled Probe for PET Imaging of Oxidative Stress in Chemotherapy-Induced Cardiotoxicity” (Molecular Pharmaceutics, 2021).
# What was measured:
# [1] = PET/CT imaging in rat model of doxorubicin-induced cardiotoxicity; type: in vivo, Wistar rats; details: PET, 30 min scan, doxorubicin n = 6, saline n = 4
# Experimental: Male Wistar rats (280–300 g) were used in all experiments. Subcutaneous 7 day osmotic pumps (Alzet), containing either doxorubicin (Cambridge Bioscience, 30 mg/kg cumulative dose) or vehicle (sterile 0.9% NaCl), were inserted into rats under 2% isoflurane in 100% oxygen.
# Wistar rats that had received either doxorubicin treatment (male, 267 ± 19 g, n = 6) or saline (male, 303 ± 9 g, n = 4) via osmotic pumps for 7 days were injected with ^18F-FPBT (2.6 ± 1.5 MBq) via the tail vein on the PET/CT scanner bed. The time of injection coincided with the beginning of PET acquisition in order to obtain dynamic tracer uptake information. PET scans with the chest area in the field of vision were acquired for 30 min, followed by a CT scan, after which the animals were sacrificed and organs harvested, weighed, and gamma-counted as for the biodistribution protocol. The hearts were frozen in liquid nitrogen for gamma counting and oxidative stress biomarker assays. The PET data was reconstructed into three frames: 0–3 min, 3–10 min, and 10–30 min. For the time–activity curve, the PET data was reconstructed into 1 min per frame in the first 5 min and then 5 min per frame between 5 and 30 min. […] Radioactivity uptake in the heart was calculated as a standard uptake value ratio (SUVR) between left ventricle and blood. […]
# [2] = Reactivity of 18F-FPBT to reactive oxygen species: hydrogen peroxide; details: 100 μM, 5 min
# Experimental: ^18F-FPBT (0.5–2.0 MBq) was reacted with potassium superoxide (source of superoxide, 1 mg), hydrogen peroxide (100 μM), Fenton-reaction-generated hydroxyl radicals (100 μM), iron(II) sulfate heptahydrate (100 μM), tert-butyl hydroperoxide (100 μM), tert-butoxy radical (100 μM), and 3-morpholinosydnomine (source of peroxynitrite (100 μM)) for 5 min or diethylamine NONOate (source of nitric oxide, 100 μM) for 30 min at room temperature, after which it was subjected to radio-HPLC analysis and % oxidation was calculated.
# [3] = Serum stability at 37 °C by radio-HPLC; type: in vitro ADME, rat; details: rat serum, ice-cold acetonitrile precipitation
# Experimental: ^18F-FPBT (∼3.0 MBq) in 5% ethanol in PBS (200 μL) containing sodium ascorbate (0.01 mg/mL) was incubated with rat serum (200 μL) at 37 °C for 1 min or 1 h. Subsequently, plasma proteins were precipitated from the supernatant with ice-cold acetonitrile (1.5 mL), and samples were centrifuged (3 min, 13 000 rpm). The residual activity in the pellet was <3%. The supernatant (∼2.0 MBq, 1.0 mL) was analyzed by radio-HPLC. HPLC method: ZORBAX column (300SB-C18, semipreparative 9.4 mm × 250 mm, 5 μm) using acetonitrile and water as the mobile phase, at a flow rate of 3.0 mL/min. The following gradient was used: from 50% to 90% acetonitrile in 15 min; kept at 90% acetonitrile for 10 min; from 90 to 50% acetonitrile in 5 min.
# ^18F-FBPT-Ox (2–4 MBq, 50 μL in 10% EtOH/PBS) was added to serum (500 μL) and incubated at 37 °C for 5, 15, and 30 min, respectively. Plasma proteins were precipitated with a 5-sulfosalicylic acid water solution (10% w/v, 1 mL) and centrifuged (3 min, 13 000 rpm). The supernatant was removed and diluted with 500 μL of DI H2O and analyzed via radio-HPLC. A control experiment was performed where ^18F-FBPT-Ox (2 MBq, 50 μL in 10% EtOH/PBS) was added to 500 μL of PBS, incubated at 37 °C for 30 min. A 5-sulfosalicylic acid water solution (10% w/v, 1 mL) was added, thoroughly mixed, then diluted with 500 μL of DI H2O, and analyzed via radio-HPLC. […]
# [4] = Lipophilicity, partition between 1-octanol and PBS; type: physicochemical; details: 1-octanol/PBS, pH 7.4, 1-octanol/PBS pH 7.4, shake-flask, n = 6; read-out: LogD
# Experimental: The lipophilicity of ^18F-FPBT and ^18F-FPBT-Ox was determined by a conventional partition method between 1-octanol and phosphate buffered saline (PBS), pH 7.4. 1-Octanol was presaturated with PBS before use. The radiotracer (∼2 KBq) was added to a mixture of PBS (200 μL) and 1-octanol (200 μL) in a 1.5 mL Eppendorf vial (n = 6). The mixture was vigorously agitated at rt for 5 min and then centrifuged at 3000 g for 10 min. A 100 μL aliquot from each layer was drawn for measurement in a gamma counter. The LogDoct/PBS was calculated as follows: log [(cpm in the 1-octanol layer – cpm 1-octanol blank)/(cpm in the PBS layer – cpm PBS blank)].
smiles,measurement,setting,value
"[18F]CCCN1c2ccccc2SC1c1ccccc1 (centres unmarked) [^18F-FPBT, 3-(3-[^18F]Fluoropropyl)-2-phenyl-2,3-dihydrobenzo[d]thiazole]",SUVR LV/blood (heart uptake) of doxorubicin-treated rats compared to vehicle control group,[1],statistically significantly (p < 0.05) higher
same,SUVR LV/blood (heart uptake) of doxorubicin-treated rats compared to vehicle control group,[1]; listed as 18F-FBPT,significantly higher (P < 0.05) uptake
same,Reactivity to hydrogen peroxide,[2],some reactivity
same,Residual activity in the pellet after protein precipitation,[3],< 3%
same,LogD,[4],1 ± 0.08
